Results on 3 molecules are retold here after US20100316738A1, “METHODS OF INHIBITING, PREVENTING, KILLING AND/OR REPELLING INSECTS USING SIMULATED BLENDS OF CHENOPODIUM EXTRACTS” (priority 2009, published 2010).

“And” between values parts separate entries of the source, which are not always exact repeats. Equal values may be shown once.

This experiment relates to lepidoptera eggs (Spodoptera exigua). As to the kind of experiment: Direct contact overlay LC assay, caterpillar eggs. As to conditions: for Times more active in the C13 blend than when tested alone: LC50 alone vs share of C13 LC50 (1% solution); for Direct AVG LC50 / Estimated LC50: mortality after five days; for Direct AVG LC50: diluent 0.25% Tween 81; for Estimated LC50: nested set, probit analysis, tested alone in 0.25% Tween 81.

From the text: The objective of this study was to evaluate the effects of synthetic blend-based composition C13 and each of its primary terpenes against lepidoptera eggs (Spodoptera exigua) in a laboratory assay that mimics contact activity on a leaf surface in the field. This was done by estimating the LC50 of the solvent/carrier (in this instance, vegetable oil) and the three primary terpenes alone, and comparing those values to the estimated LC50 of C13.
A requirement of the Probit model used to estimate the LC50 is that there should be a dose response with two rates above 50% mortality and two rates below 50%. Because of their solubility it was not possible to get this with a neat solution of oil or terpenes so, a series of preliminary assays were conducted to find a suitable carrier, testing solutions compatible with the terpenes and carrier. To achieve a stable emulsion of the individual terpenes that could be pipetted across a suitable range of concentrations, it was decided to use a universal diluent containing 0.25% Tween™ 81.
Stock solutions were transferred to deep, 96-well, micro-titre plates. 1.4 ml of each stock solution was placed in the 2 ml wells that ran across the top row of the deep well plate (Row A; wells 1-12, see Table 15). A digital 12-channel Matrix pipette was then used to add 700 uls of 0.25% Tween 81 in deionized water (DI H2O) to the remaining wells (Rows B-H; 1-12). The 12 channel pipette was used to perform serial dilutions by mixing, aspirating, and then dispensing 700 ul of each stock solution from row A into the adjoining 700 ul of diluent in row B. This process was repeated seven times to give a final concentration of eight, 50% serially diluted samples containing 700 μl.
An eight channel Matrix pipette was then used to mix, aspirate and distribute all eight of the serial dilutions from the deep well plate to a labeled 96 well plate containing a wheat germ/casein-based artificial diet. Aliquots containing 240 μl of each dilution were aspirated and 40 μl were dispensed into to six wells across the surface of the micro-titre plate containing 200 μl of artificial diet/well. Two samples were tested on every plate with the one sample in rows A through H—columns 1 to 6, and the second sample in wells A through H columns 7 to 12. The last two samples in each assay contain the Javelin standard and 0.25% Tween in DI water as the untreated controls.
The samples were then dried under forced air at room temperature. This deposits a thin film of the treatment on the surface of the diet much the same way as applying a spray solution to a leaf surface. Once the plates were dried, then eggs were put in each well using a Matrix pipette with 5-10 temporally synchronized caterpillar eggs suspended in 20 μl of a 0.1% agar solution. This rehydrates the surface film and then the egg:agar was dried under forced air, a second time. Once the agar solution was dry the plates were heat sealed with a perforated Mylar film that seals the insects in the well, but allows for gas exchange. The plates were incubated at 28° C. on a 16:8 light:dark cycle. After five days the numbers of live insects in each row were recorded. Mortality was recorded as the number dead over the number treated and expressed as control corrected percent mortality.

On to `C=C(C)[C@H]1CC=C(C)CC1` [d-limonene], for which the “Times more active in the C13 blend than when tested alone” value was 64 X; the “Direct AVG LC50” value was found to be 2.093%; the “Estimated LC50” value was 1.9% and 1.905%.
Regarding `Cc1ccc(C(C)C)cc1` [p-cymene], the “Times more active in the C13 blend than when tested alone” value stood at 72 X; the “Direct AVG LC50” value was 1.539%; the “Estimated LC50” value was 2.68% and 2.682%.
With `CC1=CC=C(C(C)C)CC1` [α-terpinene], the “Direct AVG LC50” value was 4.336%; the “Estimated LC50” value was 4.77% and 4.776%.
